From PMC6158189, “A pharmacological probe identifies cystathionine β-synthase as a new negative regulator for ferroptosis” (Cell Death & Disease, 2018) come the findings set out here.

In assay [1] the target is T1, hCBS S147A (Homo sapiens, UniProt P35520, S147A).
T1 construct: hCBS-413 (a C-terminal truncated hCBS 1–413); GST (N); made in house; host or cells: E. coli BL21
Put plainly: purified hCBS mutant enzyme assay. The format is biochemical. The protocol:
(§1) The IC50 values of CH004 for hCBS-413, hCBS-413 mutants, hCBS-FL, hCSE or hDDC were determined according to the standard assay conditions otherwise indicated.
(§2) Table S2. Inhibitory effects of CH004 on hCBS WT and mutants.

The target of assay [2] is T2, hCBS T146A (Homo sapiens, UniProt P35520, T146A).
T2 construct: hCBS-413 (a C-terminal truncated hCBS 1–413); GST (N); made in house; host or cells: E. coli BL21
As to the kind of experiment: purified hCBS mutant enzyme assay. Type of assay: biochemical. On the procedure: as §1, §2

Assay [3] concerns the target T3, hCBS Y223F (Homo sapiens, UniProt P35520, Y223F).
T3 construct: hCBS-413 (a C-terminal truncated hCBS 1–413); GST (N); made in house; host or cells: E. coli BL21
Put plainly: purified hCBS mutant enzyme assay. The format is biochemical. The protocol:
as §1, §2

The target of assay [4] is T4, CBS-FL mutant (293T-CBS Q222A) (Homo sapiens, UniProt P35520, Q222A).
T4 construct: human CBS or hCSE full-length (CBS-FL or CSE) was subcloned into pGEX-KG, pcDNA3 or pCDH vector; expressed in transfected cells
As to the kind of experiment: H2S in HEK293T cells stably expressing CBS Q222A (AzMC probe). The format is cell-based. Particulars: 5 and 10 μM CH004, 8 h. On the procedure: HEK293T cells were transiently transfected with empty vector (EV, i and ii), hCBS-FL (iii and iv) or hCSE (v and vi) plasmids, followed by incubation with DMSO (i–iii and v) or 10 μM CH004 (iv and vi) for 8 h before staining with 50 μM AzMC, a H2S-specific probe (“Materials and Methods” section). For larger fluorescent and bright-field images, please see Supplementary Figure 4. The expression levels of hCBS or hCSE in HEK293T cells after transient transfections were determined by western blotting using an anti-CBS antibody (3E1, 1:2000; Abnova) or anti-CSE antibody (1:500, GeneTex). The densities of protein bands for hCBS or hCSE in the blots were quantified with the ImageJ software (National Institutes of Health, Bethesda, MD, USA) and expressed as ratios of respective control (EV group). […] The fluorescent images of the H2S (blue) were accordingly quantified (“Materials and Methods” section) with ImageJ. […] A representative fluorescence image from three independent experiments is shown. […]
H2S levels in living cells were detected using a H2S-specific fluorescent probe according to a protocol described previously[31],[55]. […] After incubation with 50 μM AzMC at 37 °C for 30 min, the cells were washed 4 times with PBS, and the fluorescent images were recorded with excitation by 405 nm laser by using a A1Si (Nikon) confocal microscope. […]

Assay [5] relates to HepG2 cells. As to the kind of experiment: total Hcys in HepG2 cells (ELISA). Type of assay: cell-based, human. Particulars: 5 or 10 μM, 12 h. On the procedure:
Fig. 3 The effect of CH004 on the activity of endogenous hCBS in cells. a CH004 dose-dependently elevates the levels of Hcys in HepG2 and HEK293T cells. HepG2 cells or HEK293T cells were incubated with indicated CH004 or DMSO (control) for 12 h. The amount of total Hcys in cells was measured by ELISA using Axis® Homocysteine EIA kit (IBL, AX51301) (“Materials and Methods” section). […] HepG2 cells were treated with indicated DMSO, CH004 or HA for 8 h before the staining with AzMC probe. The amount of the H2S (blue) was quantified and is shown in (c). Bars, 50 μm. Control (CTR), DMSO group (100%). A representative fluorescence image from three independent experiments is shown. Means ± SDS (n = 3). d CH004 elevates Hcys in the peripheral blood of rats. The total Hcys of the blood samples collected from the anesthetized rats at the 75 min time point (Materials and Methods) were quantified by ELISA (see above). Means ± SDS (n = 6).
HepG2 or HEK293T cells were seeded in poly-D-Lys-coated 6-well plates at a density of ∼ 5 × 10^5 cells per well for one day, treated with DMSO or various concentrations of compounds for another 12 h before the collection by scraping or trypsinization. […]
(In general: An ELISA detects its analyte on a solid surface through an enzyme-linked reagent.)

The mark [6] stands for this setting: 150 nM CBS, 4 mM Hcys, 4 mM Cys, Tris-HCl pH 8.6.

Entries after “also recorded” stand apart in the source; their conditions may differ.

For `Cn1nc(Cc2ccccc2)nc2c(=O)n(C)c(=O)nc1-2` [CH004, 3-benzyl-1,6-dimethylpyrimido[5,4-e][1,2,4]triazine-5,7(1H,6H)-dione], the “IC50 fold to WT, S147A” value in assay [1] is 4.9. The IC50 worked out at 5.9 ± 0.8 µM in assay [1] (setting [6]); 5 ± 1.5 µM in assay [2] (2 µM CBS, 4 mM Hcys, 4 mM Cys, Tris-HCl pH 8.6); 4.2 ± 1 µM in assay [3] (setting [6]). Also, the “IC50 fold to WT, T146A” value in assay [2] is 4.2. In addition, the “IC50 fold to WT, Y223F” value in assay [3] came to 3.5. The “effect on H2S” value in assay [4] is given as “no significant decrease; also recorded: hardly affected”. Moreover, in assay [5], the “increase of Hcys” value is recorded as ~ 2 fold.

What is called IC50 is the midpoint of a concentration-inhibition curve. A high value points to weaker potency in that assay.
